Molecular target: T1, HCMV polymerase (Human cytomegalovirus, UniProt P08546)
T1 construct: made in house; host or cells: recombinant baculovirus-infected SF-9 insect cells
Test: biochemical
Conditions: HCMV polymerase; SPA; modified assay: compounds in 100% DMSO, 4.5 mM DTT
Summary of the method: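 Scintillation proximity assay with baculovirus/SF-9-expressed HCMV polymerase, 90 nM ³H-dTTP and 6 nM biotinylated poly(dA)-oligo(dT) in HEPES pH 7.5/KCl/MgCl2/BSA, ±2 mM CHAPS, 25 or 37 °C, 30 min for HCMV. Modified version: compounds diluted in 100% DMSO, 4.5 mM DTT added. IC50 from linear regression.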

T1 sequence (P08546 whole entry): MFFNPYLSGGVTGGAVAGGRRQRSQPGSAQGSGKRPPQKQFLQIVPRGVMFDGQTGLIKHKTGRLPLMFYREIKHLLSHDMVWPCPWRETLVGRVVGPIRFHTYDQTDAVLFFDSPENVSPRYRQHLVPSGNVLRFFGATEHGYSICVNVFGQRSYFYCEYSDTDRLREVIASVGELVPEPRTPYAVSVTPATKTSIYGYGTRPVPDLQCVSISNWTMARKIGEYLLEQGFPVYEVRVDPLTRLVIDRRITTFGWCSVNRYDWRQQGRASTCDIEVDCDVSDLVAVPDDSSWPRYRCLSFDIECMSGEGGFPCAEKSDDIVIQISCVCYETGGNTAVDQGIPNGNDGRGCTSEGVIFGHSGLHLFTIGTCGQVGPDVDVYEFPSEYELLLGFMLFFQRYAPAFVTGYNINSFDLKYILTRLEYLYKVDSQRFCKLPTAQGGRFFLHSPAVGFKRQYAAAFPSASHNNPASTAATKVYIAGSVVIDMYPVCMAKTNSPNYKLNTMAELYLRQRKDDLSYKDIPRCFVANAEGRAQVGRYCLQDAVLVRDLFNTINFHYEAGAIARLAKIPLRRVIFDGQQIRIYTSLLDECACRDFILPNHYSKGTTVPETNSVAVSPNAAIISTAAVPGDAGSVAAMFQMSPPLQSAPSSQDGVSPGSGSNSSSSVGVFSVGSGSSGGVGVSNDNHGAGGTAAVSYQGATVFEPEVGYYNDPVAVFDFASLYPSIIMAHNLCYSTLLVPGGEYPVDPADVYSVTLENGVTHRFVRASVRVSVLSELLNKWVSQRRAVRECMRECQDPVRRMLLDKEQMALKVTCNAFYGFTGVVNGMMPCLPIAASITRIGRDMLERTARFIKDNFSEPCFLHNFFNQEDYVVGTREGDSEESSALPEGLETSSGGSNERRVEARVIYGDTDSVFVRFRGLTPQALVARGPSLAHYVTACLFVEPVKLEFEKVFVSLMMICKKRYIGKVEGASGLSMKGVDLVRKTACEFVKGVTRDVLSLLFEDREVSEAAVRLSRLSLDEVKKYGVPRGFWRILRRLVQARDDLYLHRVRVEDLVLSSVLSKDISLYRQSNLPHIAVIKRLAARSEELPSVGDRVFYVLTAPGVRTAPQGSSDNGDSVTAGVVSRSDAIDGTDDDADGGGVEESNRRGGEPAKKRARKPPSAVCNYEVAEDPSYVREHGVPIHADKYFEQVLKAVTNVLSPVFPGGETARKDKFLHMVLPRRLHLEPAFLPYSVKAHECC

CC(C)(C)OCCOCCn1cc(C(=O)NCc2ccc(Cl)cc2)c(=O)c2cc(CN3CCOCC3)ccc21 [Example 91, 1-{2-[2-(tert-Butoxy)ethoxy]ethyl}-N-(4-chlorobenzyl)-6-(4-morpholinylmethyl)-4-oxo-1,4-dihydro-3-quinolinecarboxamide]
IC50: 2100 nM

COCCOCCn1cc(C(=O)NCc2ccc(Cl)cc2)c(=O)c2cc(CSC)ccc21 [Example 93, N-(4-Chlorobenzyl)-1-[2-(2-methoxyethoxy)ethyl]-6-[(methylsulfanyl)methyl]-4-oxo-1,4-dihydro-3-quinolinecarboxamide]
IC50: 6200 nM

Cn1cc(C(=S)NCc2ccc(Cl)cc2)c(=O)c2cc(C#CCO)ccc21 [Example 94, N-(4-chlorobenzyl)-6-(3-hydroxy-1-propynyl)-1-methyl4-oxo-1,4-dihydro-3-quinolinecarbothioamide]
IC50: 770 nM

Cn1cc(C(=S)NCc2ccc(Cl)cc2)c(=O)c2cc(CN3CCOCC3)ccc21 [Example 95, N-(4-Chlorobenzyl)-1-methyl-6-(4-morpholinylmethyl)-4-oxo-1,4-dihydro-3-quinolinecarbothioamide]
IC50: 300 nM

Cn1cc(C(=O)NCc2ccc(Cl)cc2)c(=O)c2cccc(C#CCO)c21 [Example 96, N-(4-Chlorobenzyl)-8-(3-hydroxy-1-propynyl)-1-methyl-4-oxo-1,4-dihydro-3-quinolinecarboxamide]
IC50: 1000 nM

Cn1cc(C(=O)NCc2ccc(Cl)cc2)c(=O)c2cccc(C#CCCO)c21 [Example 97, N-(4-Chlorobenzyl)-8-(4-hydroxy-1-butynyl)-1-methyl-4-oxo-1,4-dihydro-3-quinolinecarboxamide]
IC50: 1500 nM

Cn1cc(C(=O)NCc2ccc(Cl)cc2)c(=O)c2cc(CC3CCOCC3)ccc21 [Example 98, N-(4-Chlorobenzyl)-1-methyl-4-oxo-6-(tetrahydro-2H-pyran-4-ylmethyl)-1,4-dihydro-3-quinolinecarboxamide]
IC50: 310 nM

Cn1cc(C(=O)NCc2ccc(Cl)cc2)c(=O)c2cc(CN3CC(=NO)C3)ccc21 [Example 99, N-(4-Chlorobenzyl)-6-{[3-(ydroxyimino)-1-azetidinyl]methyl}-1-methyl-4-oxo-1,4-dihydro-3-quinolinecarboxamide]
IC50: 8000 nM

O=C(NCc1ccc(Cl)cc1)c1cn(CCOCCN2CCOCC2)c2ccc(CN3CCOCC3)cc2c1=O [Example 100]
IC50: 2900 nM

O=C(NCc1ccc(Cl)cc1)c1cn(CSc2ccc(Cl)cc2)c2ccc(CN3CCOCC3)cc2c1=O [Example 101, N-(4-Chlorobenzyl)-1-([(4-chlorophenyl)sulfanyl]methyl)-6-(4-morpholinylmethyl)-4-oxo-1,4-dihydro-3-quinolinecarboxamide]
IC50: 300 nM

O=C(NCc1ccc(Cl)cc1)c1cn(C[S+]([O-])c2ccc(Cl)cc2)c2ccc(CN3CCOCC3)cc2c1=O (stereo not drawn) [Example 102]
IC50: 590 nM

O=C(NCc1ccc(Cl)cc1)c1cn(CS(=O)(=O)c2ccc(Cl)cc2)c2ccc(CN3CCOCC3)cc2c1=O [Example 103, N-(4-Chlorobenzyl)-1-([(4-chlorophenyl)sulfonyl]methyl)-6-(4-morpholinylmethyl)-4-oxo-1,4-dihydro-3-quinolinecarboxamide]
IC50: 830 nM

O=C(NCc1ccc(Cl)cc1)c1cn(COc2ccc(Cl)cc2)c2ccc(CN3CCOCC3)cc2c1=O [Example 104, N-(4-Chlorobenzyl)-1-[(4-chlorophenoxy)methyl]-6-(4-morpholinylmethyl)-4-oxo-1,4-dihydro-3-quinolinecarboxamide]
IC50: 1600 nM

COCCOCn1cc(C(=O)NCc2ccc(Cl)cc2)c(=O)c2cc(CN3CCOCC3)ccc21 [Example 105, N-(4-Chlorobenzyl)-1-[(2-methoxyethoxy)methyl]-6-(4-morpholinylmethyl)-4-oxo-1,4-dihydro-3-quinolinecarboxamide]
IC50: 1300 nM

O=C(OCCOCn1cc(C(=O)NCc2ccc(Cl)cc2)c(=O)c2cc(CN3CCOCC3)ccc21)c1ccccc1 [Example 106, 2-{[3-{[(4-Chlorobenzyl)amino]carbonyl}-6-(4-morpholinylmethyl)-4-oxo-1(4H)-quinolinyl]methoxy}ethyl benzoate]
IC50: 3100 nM
